Assay results reported in ChEMBL document CHEMBL4507285, “Data for DCP probe MRL-SYKi” (2021).

Tests used:
[1] = tested on: Epidermal growth factor receptor (Homo sapiens), P00533 [UNDEFINED MUTATION]; details: Compound concentration 100.0 nM
[2] = molecular target: Calcium/calmodulin-dependent protein kinase type 1D (Homo sapiens) (UniProt Q8IU85); details: Compound concentration 100.0 nM
[3] = molecular target: Serine/threonine-protein kinase RIO1 (Homo sapiens) (UniProt Q9BRS2); details: Compound concentration 100.0 nM
[4] = molecular target: Ribosomal protein S6 kinase alpha-3 (Homo sapiens) (UniProt P51812); details: Compound concentration 100.0 nM
[5] = molecular target: Tyrosine-protein kinase ZAP-70 (Homo sapiens) (UniProt P43403); details: Compound concentration 100.0 nM
[6] = molecular target: Non-receptor tyrosine-protein kinase TYK2 (Homo sapiens) (UniProt P29597); details: Compound concentration 100.0 nM
[7] = molecular target: Serine/threonine-protein kinase 32A (Homo sapiens) (UniProt Q8WU08); details: Compound concentration 100.0 nM
[8] = molecular target: Dual specificity tyrosine-phosphorylation-regulated kinase 1A (Homo sapiens) (UniProt Q13627); details: Compound concentration 100.0 nM
[9] = molecular target: Receptor tyrosine-protein kinase erbB-4 (Homo sapiens) (UniProt Q15303); details: Compound concentration 100.0 nM
[10] = molecular target: Alpha-1D adrenergic receptor (Homo sapiens) (UniProt P25100); details: Compound concentration 10.0 uM
[11] = molecular target: Casein kinase I isoform gamma-1 (Homo sapiens) (UniProt Q9HCP0); details: Compound concentration 100.0 nM
[12] = molecular target: Tyrosine-protein kinase BTK (Homo sapiens) (UniProt Q06187); details: Compound concentration 100.0 nM
[13] = molecular target: Cyclin-dependent kinase 15 (Homo sapiens) (UniProt Q96Q40); details: Compound concentration 100.0 nM
[14] = molecular target: Epithelial discoidin domain-containing receptor 1 (Homo sapiens) (UniProt Q08345); details: Compound concentration 100.0 nM
[15] = tested on: Phosphatidylinositol 4,5-bisphosphate 3-kinase catalytic subunit alpha isoform (Homo sapiens), P42336 [E542K]; details: Compound concentration 100.0 nM
[16] = molecular target: Cyclin-dependent kinase-like 1 (Homo sapiens) (UniProt Q00532); details: Compound concentration 100.0 nM
[17] = molecular target: Mast/stem cell growth factor receptor Kit (Homo sapiens) (UniProt P10721); details: Compound concentration 100.0 nM
[18] = molecular target: Casein kinase I isoform alpha-like (Homo sapiens) (UniProt Q8N752); details: Compound concentration 100.0 nM
[19] = molecular target: Serine/threonine-protein kinase Chk1 (Homo sapiens) (UniProt O14757); details: Compound concentration 100.0 nM
[20] = molecular target: Ephrin type-A receptor 7 (Homo sapiens) (UniProt Q15375); details: Compound concentration 100.0 nM
[21] = molecular target: Serine/threonine-protein kinase 4 (Homo sapiens) (UniProt Q13043); details: Compound concentration 100.0 nM
[22] = molecular target: Serine/threonine-protein kinase NLK (Homo sapiens) (UniProt Q9UBE8); details: Compound concentration 100.0 nM
[23] = molecular target: Fibroblast growth factor receptor 4 (Homo sapiens) (UniProt P22455); details: Compound concentration 100.0 nM
[24] = molecular target: Alpha-2B adrenergic receptor (Homo sapiens) (UniProt P18089); details: Compound concentration 10.0 uM
[25] = molecular target: Testis-specific serine/threonine-protein kinase 1 (Homo sapiens) (UniProt Q9BXA7); details: Compound concentration 100.0 nM
[26] = molecular target: Testis-specific serine/threonine-protein kinase 3 (Homo sapiens) (UniProt Q96PN8); details: Compound concentration 100.0 nM
[27] = molecular target: Dual specificity mitogen-activated protein kinase kinase 2 (Homo sapiens) (UniProt P36507); details: Compound concentration 100.0 nM
[28] = molecular target: Death-associated protein kinase 1 (Homo sapiens) (UniProt P53355); details: Compound concentration 100.0 nM
[29] = tested on: Phosphatidylinositol 4,5-bisphosphate 3-kinase catalytic subunit alpha isoform (Homo sapiens), P42336 [E545A]; details: Compound concentration 100.0 nM
[30] = molecular target: Tyrosine-protein kinase ABL1 (Homo sapiens) (UniProt P00519); details: Compound concentration 100.0 nM
[31] = tested on: Phosphatidylinositol 4,5-bisphosphate 3-kinase catalytic subunit alpha isoform (Homo sapiens), P42336 [I800L]; details: Compound concentration 100.0 nM
[32] = molecular target: Mitogen-activated protein kinase kinase kinase 15 (Homo sapiens) (UniProt Q6ZN16); details: Compound concentration 100.0 nM
[33] = molecular target: Focal adhesion kinase 1 (Homo sapiens) (UniProt Q05397); details: Compound concentration 100.0 nM
[34] = tested on: ALK tyrosine kinase receptor (Homo sapiens), Q9UM73 [C1156Y]; details: Compound concentration 100.0 nM
[35] = molecular target: Cytoplasmic tyrosine-protein kinase BMX (Homo sapiens) (UniProt P51813); details: Compound concentration 100.0 nM
[36] = molecular target: Serine/threonine-protein kinase ICK (Homo sapiens) (UniProt Q9UPZ9); details: Compound concentration 100.0 nM
[37] = molecular target: Cyclin-dependent kinase 7 (Homo sapiens) (UniProt P50613); details: Compound concentration 100.0 nM
[38] = molecular target: Serine/threonine-protein kinase 32B (Homo sapiens) (UniProt Q9NY57); details: Compound concentration 100.0 nM
[39] = molecular target: Serine/threonine-protein kinase N2 (Homo sapiens) (UniProt Q16513); details: Compound concentration 100.0 nM
[40] = molecular target: Glycogen synthase kinase-3 alpha (Homo sapiens) (UniProt P49840); details: Compound concentration 100.0 nM
[41] = molecular target: Activin receptor type-1 (Homo sapiens) (UniProt Q04771); details: Compound concentration 100.0 nM
[42] = molecular target: Serine/threonine-protein kinase Nek7 (Homo sapiens) (UniProt Q8TDX7); details: Compound concentration 100.0 nM
[43] = molecular target: Serine/threonine-protein kinase 25 (Homo sapiens) (UniProt O00506); details: Compound concentration 100.0 nM
[44] = molecular target: Serine/threonine-protein kinase tousled-like 1 (Homo sapiens) (UniProt Q9UKI8); details: Compound concentration 100.0 nM
[45] = molecular target: Homeodomain-interacting protein kinase 1 (Homo sapiens) (UniProt Q86Z02); details: Compound concentration 100.0 nM

Sequence of Mitogen-activated protein kinase kinase kinase 15 (Homo sapiens) (Q6ZN16 whole entry): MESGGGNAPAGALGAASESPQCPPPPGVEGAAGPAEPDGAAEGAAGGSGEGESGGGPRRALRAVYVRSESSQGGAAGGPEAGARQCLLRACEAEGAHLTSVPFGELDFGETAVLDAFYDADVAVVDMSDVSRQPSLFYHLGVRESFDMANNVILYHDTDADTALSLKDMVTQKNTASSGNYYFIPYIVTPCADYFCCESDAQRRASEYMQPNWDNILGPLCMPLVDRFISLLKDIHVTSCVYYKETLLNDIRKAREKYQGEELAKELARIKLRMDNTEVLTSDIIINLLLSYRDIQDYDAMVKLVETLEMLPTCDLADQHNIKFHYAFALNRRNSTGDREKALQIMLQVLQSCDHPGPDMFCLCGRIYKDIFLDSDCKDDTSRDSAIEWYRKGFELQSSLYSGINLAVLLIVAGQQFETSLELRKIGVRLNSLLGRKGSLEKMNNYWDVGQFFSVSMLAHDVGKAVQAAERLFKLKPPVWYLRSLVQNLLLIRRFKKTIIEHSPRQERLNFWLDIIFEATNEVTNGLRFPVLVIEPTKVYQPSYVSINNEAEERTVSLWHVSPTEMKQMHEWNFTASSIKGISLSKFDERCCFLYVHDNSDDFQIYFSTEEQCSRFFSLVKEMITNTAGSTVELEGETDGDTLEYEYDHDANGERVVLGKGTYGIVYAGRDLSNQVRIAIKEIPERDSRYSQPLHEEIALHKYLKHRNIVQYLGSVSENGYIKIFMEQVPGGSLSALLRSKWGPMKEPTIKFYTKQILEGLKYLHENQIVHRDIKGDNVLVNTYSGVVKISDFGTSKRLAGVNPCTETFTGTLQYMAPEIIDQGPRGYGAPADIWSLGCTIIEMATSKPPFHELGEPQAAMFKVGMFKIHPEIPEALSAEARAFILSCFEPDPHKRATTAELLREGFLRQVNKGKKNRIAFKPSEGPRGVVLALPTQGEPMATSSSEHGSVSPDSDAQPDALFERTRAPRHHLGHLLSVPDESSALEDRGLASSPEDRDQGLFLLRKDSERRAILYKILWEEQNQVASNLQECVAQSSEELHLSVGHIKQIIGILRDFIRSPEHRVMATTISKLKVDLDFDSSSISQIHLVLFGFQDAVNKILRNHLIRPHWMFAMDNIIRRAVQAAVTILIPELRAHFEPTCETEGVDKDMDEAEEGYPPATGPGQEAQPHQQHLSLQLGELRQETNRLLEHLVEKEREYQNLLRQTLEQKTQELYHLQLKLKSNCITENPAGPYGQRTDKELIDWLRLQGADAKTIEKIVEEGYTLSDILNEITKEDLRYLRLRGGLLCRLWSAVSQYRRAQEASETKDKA
Sequence of Tyrosine-protein kinase ABL1 (Homo sapiens) (P00519 whole entry, canonical isoform): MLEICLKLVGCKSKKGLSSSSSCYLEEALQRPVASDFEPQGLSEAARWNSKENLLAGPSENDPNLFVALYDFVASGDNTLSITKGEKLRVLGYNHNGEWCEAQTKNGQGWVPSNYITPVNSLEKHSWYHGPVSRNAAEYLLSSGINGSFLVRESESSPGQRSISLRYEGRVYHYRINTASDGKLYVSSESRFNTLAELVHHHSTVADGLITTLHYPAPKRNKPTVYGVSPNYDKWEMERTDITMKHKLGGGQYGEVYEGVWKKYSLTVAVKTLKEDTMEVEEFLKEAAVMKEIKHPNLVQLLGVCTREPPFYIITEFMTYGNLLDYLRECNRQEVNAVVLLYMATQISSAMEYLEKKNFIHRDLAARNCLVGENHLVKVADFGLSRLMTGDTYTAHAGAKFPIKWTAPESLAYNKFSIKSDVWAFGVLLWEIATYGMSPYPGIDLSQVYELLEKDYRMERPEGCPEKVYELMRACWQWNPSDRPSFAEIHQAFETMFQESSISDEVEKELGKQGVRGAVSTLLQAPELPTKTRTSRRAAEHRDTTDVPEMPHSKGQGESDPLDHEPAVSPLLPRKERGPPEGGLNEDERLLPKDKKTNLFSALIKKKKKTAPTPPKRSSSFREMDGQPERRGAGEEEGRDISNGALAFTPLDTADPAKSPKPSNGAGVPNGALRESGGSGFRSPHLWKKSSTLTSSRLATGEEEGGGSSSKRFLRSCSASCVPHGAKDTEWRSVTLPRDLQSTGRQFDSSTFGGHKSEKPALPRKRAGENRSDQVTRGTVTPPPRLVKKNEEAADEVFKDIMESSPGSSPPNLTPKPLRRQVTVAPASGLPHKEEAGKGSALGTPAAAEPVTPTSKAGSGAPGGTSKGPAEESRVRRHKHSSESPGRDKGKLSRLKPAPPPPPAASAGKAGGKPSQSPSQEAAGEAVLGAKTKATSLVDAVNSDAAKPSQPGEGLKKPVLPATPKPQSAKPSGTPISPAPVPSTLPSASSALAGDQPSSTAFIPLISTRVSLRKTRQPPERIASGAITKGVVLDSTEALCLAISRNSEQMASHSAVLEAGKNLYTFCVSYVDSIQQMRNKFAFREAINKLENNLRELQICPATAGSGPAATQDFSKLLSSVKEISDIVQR
Sequence of Tyrosine-protein kinase BTK (Homo sapiens) (Q06187 whole entry): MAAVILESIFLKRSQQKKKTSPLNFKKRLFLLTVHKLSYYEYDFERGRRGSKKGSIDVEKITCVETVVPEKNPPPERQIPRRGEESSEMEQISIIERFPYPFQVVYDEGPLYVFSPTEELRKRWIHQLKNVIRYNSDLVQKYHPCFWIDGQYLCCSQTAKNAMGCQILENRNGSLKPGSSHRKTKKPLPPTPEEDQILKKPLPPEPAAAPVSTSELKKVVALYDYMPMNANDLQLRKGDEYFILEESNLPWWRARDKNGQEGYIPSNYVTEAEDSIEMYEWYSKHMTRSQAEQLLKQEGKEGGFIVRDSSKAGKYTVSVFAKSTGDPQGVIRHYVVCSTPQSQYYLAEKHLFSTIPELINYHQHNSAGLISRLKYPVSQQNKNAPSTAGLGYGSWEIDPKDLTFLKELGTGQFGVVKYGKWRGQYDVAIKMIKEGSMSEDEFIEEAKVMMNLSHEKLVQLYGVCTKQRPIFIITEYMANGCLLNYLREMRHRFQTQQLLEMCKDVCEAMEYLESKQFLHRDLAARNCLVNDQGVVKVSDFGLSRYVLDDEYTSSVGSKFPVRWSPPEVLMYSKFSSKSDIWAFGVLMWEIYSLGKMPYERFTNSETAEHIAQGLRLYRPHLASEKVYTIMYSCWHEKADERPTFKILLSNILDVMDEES
Sequence of Serine/threonine-protein kinase Chk1 (Homo sapiens) (O14757 whole entry): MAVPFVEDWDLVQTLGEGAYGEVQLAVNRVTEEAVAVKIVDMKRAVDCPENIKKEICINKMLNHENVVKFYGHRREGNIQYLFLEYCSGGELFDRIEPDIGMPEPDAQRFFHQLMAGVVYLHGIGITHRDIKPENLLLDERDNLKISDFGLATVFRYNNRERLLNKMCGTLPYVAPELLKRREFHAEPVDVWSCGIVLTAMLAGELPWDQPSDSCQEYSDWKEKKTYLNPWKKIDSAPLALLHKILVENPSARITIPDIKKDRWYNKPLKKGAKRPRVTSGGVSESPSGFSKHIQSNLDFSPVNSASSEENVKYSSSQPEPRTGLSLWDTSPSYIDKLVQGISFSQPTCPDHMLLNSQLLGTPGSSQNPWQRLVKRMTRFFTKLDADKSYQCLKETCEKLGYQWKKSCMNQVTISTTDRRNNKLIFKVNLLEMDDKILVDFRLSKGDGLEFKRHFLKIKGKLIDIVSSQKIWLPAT
Sequence of Fibroblast growth factor receptor 4 (Homo sapiens) (P22455 22-802 limits assumed): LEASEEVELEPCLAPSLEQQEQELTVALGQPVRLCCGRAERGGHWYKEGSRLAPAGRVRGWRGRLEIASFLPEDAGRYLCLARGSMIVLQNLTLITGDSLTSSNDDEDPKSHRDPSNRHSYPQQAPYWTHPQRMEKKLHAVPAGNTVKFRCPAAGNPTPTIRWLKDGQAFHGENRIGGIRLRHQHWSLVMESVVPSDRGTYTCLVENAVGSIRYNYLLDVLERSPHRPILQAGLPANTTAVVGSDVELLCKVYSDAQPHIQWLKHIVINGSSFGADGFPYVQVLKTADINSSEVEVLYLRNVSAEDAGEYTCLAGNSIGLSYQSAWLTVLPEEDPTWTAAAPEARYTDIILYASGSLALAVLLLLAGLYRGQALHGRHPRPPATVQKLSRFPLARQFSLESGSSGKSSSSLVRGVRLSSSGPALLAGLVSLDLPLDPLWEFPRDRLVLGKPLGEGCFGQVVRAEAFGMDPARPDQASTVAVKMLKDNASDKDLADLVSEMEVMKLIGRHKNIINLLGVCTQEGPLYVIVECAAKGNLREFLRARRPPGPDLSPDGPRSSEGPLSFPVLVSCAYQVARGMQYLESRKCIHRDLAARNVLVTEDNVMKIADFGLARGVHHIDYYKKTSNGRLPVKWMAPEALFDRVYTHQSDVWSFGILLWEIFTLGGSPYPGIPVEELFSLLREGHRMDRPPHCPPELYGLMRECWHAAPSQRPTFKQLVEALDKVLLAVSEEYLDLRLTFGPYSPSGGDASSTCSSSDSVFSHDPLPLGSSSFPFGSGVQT
Sequence of Casein kinase I isoform alpha-like (Homo sapiens) (Q8N752 whole entry, canonical isoform): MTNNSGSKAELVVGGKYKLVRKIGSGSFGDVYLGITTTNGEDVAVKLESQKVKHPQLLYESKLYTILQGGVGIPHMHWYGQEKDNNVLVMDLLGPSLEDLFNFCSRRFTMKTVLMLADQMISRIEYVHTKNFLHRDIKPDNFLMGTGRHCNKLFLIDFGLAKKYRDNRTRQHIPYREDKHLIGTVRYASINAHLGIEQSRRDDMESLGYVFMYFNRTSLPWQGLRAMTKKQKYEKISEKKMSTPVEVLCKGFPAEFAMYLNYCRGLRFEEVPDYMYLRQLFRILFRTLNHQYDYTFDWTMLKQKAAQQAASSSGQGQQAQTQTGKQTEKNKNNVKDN
Sequence of Testis-specific serine/threonine-protein kinase 3 (Homo sapiens) (Q96PN8 whole entry): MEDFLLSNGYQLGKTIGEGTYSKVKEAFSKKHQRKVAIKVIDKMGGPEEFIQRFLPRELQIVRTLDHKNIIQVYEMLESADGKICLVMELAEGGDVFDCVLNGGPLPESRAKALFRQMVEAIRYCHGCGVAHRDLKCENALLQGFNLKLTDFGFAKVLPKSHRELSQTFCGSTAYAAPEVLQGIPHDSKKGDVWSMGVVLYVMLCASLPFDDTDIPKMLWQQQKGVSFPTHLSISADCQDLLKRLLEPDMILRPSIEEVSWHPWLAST

How did the residual activity [1] turn out when `Cc1ccc(-c2cnc([C@@]3(O)CC[C@H](C(=O)O)C(C)(C)C3)s2)cc1Nc1cccc(C(F)(F)F)n1` [MRL-SYKi-NC] was run?
Its residual activity is 100%.

And the residual activity [2]?
The residual activity was 89.6%.

What about the residual activity [3] of the same compound?
Its residual activity is 100%.

And the residual activity [4]?
Its residual activity is 93%.

What about the residual activity [5] of the same compound?
Its residual activity is 88.5%.

And the residual activity [6]?
The residual activity was 100%.

What about the residual activity [7] of the same compound?
The residual activity was 89.7%.

And the residual activity [8]?
The residual activity was 81.4%.

And the residual activity [9]?
Its residual activity is 81.2%.

And the inhibition [10]?
The inhibition was -2.32%.

What about the residual activity [11] of the same compound?
Its residual activity is 91.8%.

What about the residual activity [12] of the same compound?
The residual activity was 86.1%.

And the residual activity [13]?
The residual activity was 89.7%.

And the residual activity [14]?
Its residual activity is 100%.

What about the residual activity [15] of the same compound?
Its residual activity is 87.4%.

What about the residual activity [16] of the same compound?
Its residual activity is 75.6%.

And the residual activity [17]?
The residual activity was 100%.

What about the residual activity [18] of the same compound?
Its residual activity is 91.9%.

What about the residual activity [19] of the same compound?
Its residual activity is 100%.

What about the residual activity [20] of the same compound?
The residual activity was 94.2%.

What about the residual activity [21] of the same compound?
Its residual activity is 69.1%.

And the residual activity [22]?
The residual activity was 100%.

And the residual activity [23]?
The residual activity was 100%.

What about the inhibition [24] of the same compound?
The inhibition was 27%.

What about the residual activity [25] of the same compound?
The residual activity was 100%.

And the residual activity [26]?
Its residual activity is 100%.

And the residual activity [27]?
Its residual activity is 87%.

What about the residual activity [28] of the same compound?
Its residual activity is 100%.

And the residual activity [29]?
The residual activity was 74.7%.

What about the residual activity [30] of the same compound?
Its residual activity is 78.4%.

What about the residual activity [31] of the same compound?
Its residual activity is 76.7%.

And the residual activity [32]?
Its residual activity is 85%.

What about the residual activity [33] of the same compound?
The residual activity was 90.2%.

And the residual activity [34]?
Its residual activity is 100%.

What about the residual activity [35] of the same compound?
Its residual activity is 100%.

And the residual activity [36]?
The residual activity was 91.7%.

And the residual activity [37]?
Its residual activity is 86.2%.

And the residual activity [38]?
The residual activity was 63.9%.

And the residual activity [39]?
Its residual activity is 96.3%.

And the residual activity [40]?
Its residual activity is 86.8%.

And the residual activity [41]?
Its residual activity is 100%.

And the residual activity [42]?
The residual activity was 75.7%.

What about the residual activity [43] of the same compound?
Its residual activity is 72.5%.

What about the residual activity [44] of the same compound?
The residual activity was 100%.

And the residual activity [45]?
The residual activity was 84.8%.

For `Cc1cc(Nc2nccc(C)n2)cc(-c2cnc([C@@]3(O)CC[C@H](C(=O)O)C(C)(C)C3)s2)c1` [MRL-SYKi], which residual activity [1] is on record?
The residual activity was 65%.

And the residual activity [2]?
Its residual activity is 97.1%.

And the residual activity [3]?
The residual activity was 100%.

And the residual activity [4]?
Its residual activity is 87.6%.

What about the residual activity [5] of the same compound?
Its residual activity is 44.9%.

What about the residual activity [6] of the same compound?
The residual activity was 100%.

And the residual activity [7]?
Its residual activity is 100%.

And the residual activity [8]?
Its residual activity is 100%.

What about the residual activity [9] of the same compound?
Its residual activity is 81.9%.

And the inhibition [10]?
The inhibition was -4.92%.

What about the residual activity [11] of the same compound?
Its residual activity is 100%.

And the residual activity [12]?
The residual activity was 81.5%.

And the residual activity [13]?
Its residual activity is 100%.

And the residual activity [14]?
The residual activity was 84.5%.

What about the residual activity [15] of the same compound?
The residual activity was 66.5%.

What about the residual activity [16] of the same compound?
Its residual activity is 78.8%.

What about the residual activity [17] of the same compound?
The residual activity was 71.7%.

What about the residual activity [18] of the same compound?
Its residual activity is 100%.

What about the residual activity [19] of the same compound?
Its residual activity is 100%.

What about the residual activity [20] of the same compound?
The residual activity was 81.3%.

What about the residual activity [21] of the same compound?
Its residual activity is 100%.

And the residual activity [22]?
Its residual activity is 73%.

And the residual activity [23]?
The residual activity was 100%.

And the inhibition [24]?
Its inhibition is -7.14%.

And the residual activity [25]?
Its residual activity is 100%.

And the residual activity [26]?
Its residual activity is 100%.

What about the residual activity [27] of the same compound?
The residual activity was 89.4%.

And the residual activity [28]?
The residual activity was 100%.

What about the residual activity [29] of the same compound?
The residual activity was 72.7%.

What about the residual activity [30] of the same compound?
The residual activity was 45.3%.

What about the residual activity [31] of the same compound?
Its residual activity is 95.1%.

And the residual activity [32]?
The residual activity was 80.5%.

What about the residual activity [33] of the same compound?
Its residual activity is 99.9%.

And the residual activity [34]?
Its residual activity is 100%.

What about the residual activity [35] of the same compound?
The residual activity was 95.1%.

And the residual activity [36]?
Its residual activity is 65.4%.

And the residual activity [37]?
Its residual activity is 100%.

What about the residual activity [38] of the same compound?
Its residual activity is 100%.

What about the residual activity [39] of the same compound?
Its residual activity is 100%.

And the residual activity [40]?
Its residual activity is 100%.

What about the residual activity [41] of the same compound?
The residual activity was 59.3%.

And the residual activity [42]?
Its residual activity is 92.9%.

What about the residual activity [43] of the same compound?
The residual activity was 100%.

What about the residual activity [44] of the same compound?
Its residual activity is 100%.

What about the residual activity [45] of the same compound?
Its residual activity is 52.3%.
